Like-named read-outs stand apart in the source and are kept apart here.

What all share (type): cell-based
Assay [1] deals with Bel-7402 (human liver cancer cell). Put plainly: In vitro anti-tumor activity evaluation (SRB/MTT, 72 hours). Conditions: read-out: IC50 Liver cancer Bel-7402. Here is the method:
(§1) The tumor cell cultured in vitro was treated with ethoxy combretastatin derivatives for 72 hours, and the MTT and SRB assays was used to evaluate its inhibition of tumor proliferation.
(§2) Cell Line: H460 (human lung cancer cell), SGC7901 (human stomach cancer cell), HT-29 (human colon cancer cell), Bel-7402 (human liver cancer cell).
(§3) Experimental Design: The cells were incubated with the compounds in various concentrations (100, 10, 1, 0.1, 0.01, 0.001 μM) for 72 hours. SRB assay was used to evaluate the inhibition effect of the compounds on cell proliferation. The inhibition rate was calculated, and IC50 was calculated by using Logit model as a function of the inhibition rate. And the anti-tumor activity of the compounds in vitro was compared.
(§4) The Inhibition Rate was Expressed Using the Following Equation: Inhibition rate (%)=[(average OD value of control group−average OD value of experimental group)/average OD value of control group]×100%.

Assay [2] has as its system H460 (human lung cancer cell). The description is as above. Conditions: read-out: IC50 Non-small cell lung cancer H460. As to the method:
as §1, §2, §3, §4

Assay [3] relates to HT-29 (human colon cancer cell). The assay is described as above. Conditions: read-out: IC50 Colon cancer HT29. Here is the method: as §1, §2, §3, §4
In assay [4] the test system is SGC7901 (human stomach cancer cell). Described as above. The conditions noted are these: read-out: IC50 Stomach cancer SGC-7901. As to the method: as §1, §2, §3, §4
Assay [5] has as its system human umbilical vein endothelial cells (HUVEC). Nature of the assay: In vitro neovascular inhibition evaluation. Here is the method:
Anti-angiogenesis effects of ethoxy combretastatins were assessed in human umbilical vein endothelial cells (HUVEC) using the same method described in Example 10.

Where [6] appears, read: Homo sapiens, read-out: IC50 HUVEC.

Broadly, the IC50 is the concentration needed to halve the response being measured. For `CCOc1ccc(/C=C\c2cc(OC)c(OC)c(OC)c2)cc1N` [3′-Amino ethoxy combretastatin, (Z)-1-(3,4,5-trimethoxy)phenyl-2-(3′-amino-4′-ethoxy) Phenylethylene], the IC50 was 330 nM in assay [1] (Homo sapiens, Bel-7402, 72 h); 8 nM in assay [2] (Homo sapiens, NCI-H460, 72 h); 25 nM in assay [3] (Homo sapiens, HT-29, 72 h); 6 nM in assay [4] (Homo sapiens, SGC-7901, 72 h); 1500 nM in assay [5] (setting [6]).

On to `CCOc1ccc(/C=C\c2cc(OC)c(OC)c(OC)c2)cc1O` [Ethoxy combretastatin, (Z)-1-(3,4,5-trimethoxy)phenyl-2-(3′-hydroxy-4′-ethoxy) Phenylethylene], for which the IC50 in assay [1] (Homo sapiens, Bel-7402, 72 h) came out at 620 nM; in assay [2] (Homo sapiens, NCI-H460, 72 h) it was 11 nM; in assay [3] (Homo sapiens, HT-29, 72 h) it was 47 nM; in assay [4] (Homo sapiens, SGC-7901, 72 h), 8 nM; in assay [5] (setting [6]), 2200 nM.

Turning to `COc1ccc(/C=C\c2cc(OC)c(OC)c(OC)c2)cc1O` [CA-4, (Z)-1-(3,4,5-trimethoxy)phenyl-2-(3′-hydroxy-4′-methoxy)phenylethylene], the IC50 in assay [1] (Bel-7402 cells, 72 hours incubation) turned out to be 750 nM; in assay [2] (H460 cells, 72 hours incubation), 27 nM; in assay [3] (HT29 cells, 72 hours incubation) it was 2380 nM; in assay [4] (SGC-7901 cells, 72 hours incubation) it was 10 nM; in assay [5] (same method as Example 10, read-out: IC50 HUVEC), 3700 nM.

These data come from patent publication US7838706B2, “Preparation and the use of ethoxy combretastatins and their prodrugs” (priority 2006, dated 2010).
